Some test systems named below: RXF 393 renal; HT29 colon; HCT-116 colon; HCT-15 colon; SNB-19 CNS; HOP-92 NSCLC; A549 NSCLC; ACHN renal; SR leukemia; NCI-H522 lung; MOLT-4 leukemia; TK-10 renal; IGROV1 ovarian; HL-60(TB) leukemia; M14 melanoma.
What all share (experiment): NCI tumour cell line growth inhibition, 48 h

Among the data in PubChem BioAssay (NCI) are TGI and GI50 values, retold here.

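48-hour exposure; five concentrations; linearly interpolated endpoints. The concentration for 50% growth inhibition is given as GI50. At the TGI there is no net growth.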

As to `CCOC(=O)/C(=N/Nc1ccccc1)N1C(=S)C=C(C)NN(C)C1=S`, the TGI in the assay on RXF 393 renal was 20.1 µM; in the assay with HT29 colon, > 100 µM; in the assay with HCT-116 colon, > 100 µM; in the assay with HCT-15 colon it was > 100 µM; in the assay on SNB-19 CNS, > 100 µM; with HOP-92 NSCLC it was > 100 µM. The TGI in the assay with A549 NSCLC, in the assay with ACHN renal, with SR leukemia, in the assay with NCI-H522 lung, with MOLT-4 leukemia and in the assay on TK-10 renal was > 100 µM in each case. The TGI with IGROV1 ovarian, in the assay with HL-60(TB) leukemia and with M14 melanoma was > 100 µM throughout.

`C/C(=N\NC(=O)c1ccccc1O)c1cccc(/C(C)=N/NC(=O)c2ccccc2O)n1.O=S(=O)([O-])[O-].[Fe+2]`: the TGI with RXF 393 renal, in the assay on HT29 colon, with HCT-116 colon, in the assay with HCT-15 colon, in the assay with SNB-19 CNS and with HOP-92 NSCLC was > 100 µM each time. The TGI in the assay with A549 NSCLC, in the assay on ACHN renal, in the assay on SR leukemia, with NCI-H522 lung, in the assay on MOLT-4 leukemia and in the assay with TK-10 renal was > 100 µM in each case. Also, the TGI was > 100 µM in the assay on IGROV1 ovarian, 0.341 µM in the assay with HL-60(TB) leukemia and > 100 µM with M14 melanoma. For the same molecule, the GI50 is 69.2 µM in the assay with HCT-116 colon; > 100 µM in the assay on SNB-19 CNS; > 100 µM in the assay on NCI-H522 lung; 47.7 µM in the assay with IGROV1 ovarian; 0.156 µM with HL-60(TB) leukemia.
